Assay results taken from patent US20130095174A1, “Compositions and Methods for Transmucosal Delivery of Lofexidine” (US WORLDMEDS, LLC, priority 2008, published 2013).

Test: In vivo absorption of lofexidine from the sublingual cavity (pharmacokinetics, sublingual vs intravenous)
Design: species or system rabbit
Experimental: These experiments determine the bioavailability of lofexidine after transmucosal administration to the sublingual tissue in rabbit and compare it to that after intravenous administration.
The transmucosal absorption of lofexidine was measured using an in vivo technique in rabbits. Following introduction of lidocaine local anesthesia, a catheter was placed in the marginal ear artery of the rabbit for blood sample collection. For intravenous administration, a catheter was placed in the marginal ear vein of the rabbit and lofexidine hydrochloride aqueous solution (0.1 mL) was administered; a sterile drug solution was prepared by filtration (double 0.22 μm filters). A dose of 1 mg/kg lofexidine was injected into the marginal ear vein cannula followed by a 0.1 mL flush with 10% (v/v) heparin/normal saline solution to keep the cannula patent.
For sublingual administration, the lofexidine dose (1 mg/kg, 0.1 mL) of the lofexidine formulation was applied to the sublingual mucosa of the rabbit.
Aliquot parts of 1 mL blood samples were collected at predetermined time points, collected into pre-heparinized tubes and immediately placed on ice. Plasma was separated by centrifugation at 3000 rpm for 10 min, placed in polypropylene tubes, and frozen at −20° C. until the time of analysis.
Bioavailability of sublingually administered drug was calculated by comparing the plasma drug concentration between sublingual and intravenous delivery routes and expressed as a percentage of the intravenous bioavailability.
The formulation instilled into the sublingual area of the rabbits in this experiment had the following composition: • Lofexidine hydrochloride 6000 mg • Isopropanol 2 mL • Phosphate buffer (0.05 M, pH 6)
The lofexidine is dissolved in the isopropanol and the phosphate buffer to make the volume up to 200 mL.
The internal standard (IS) solution was prepared by dissolving d^4-lofexidine in a methanol:water (50:50) mixture to get a (1000 ng/mL) concentration. Plasma samples (50 μL) were spiked with IS solution (10 μL), followed by vortex mixing for 1 minute. The mixture was mixed with acetonitrile (50 μL) to precipitate plasma proteins and allowed to vortex for another minute. After centrifugation for 10 minute at 10,000 rpm, the supernatant was collected into HPLC vials in preparation for analysis by Ultra Performance Liquid Chromatography Mass Spectroscopy (UPLC/MS) system.
All analytical procedures were performed using a Waters Acquity® Ultra UPLC/MS. An Acquity UPLC BEH Shield RP18 (2.1×100 mm) column (Waters) was used to separate the chemical components at 40° C. The flow rate was 0.3 mL/min of two mobile phases, (A) made of 5 mM ammonium acetate (pH 4) and acetonitrile (90:10) and (B) of acetonitrile, 5 mM ammonium acetate (pH 4) (90:10). The mass spectrometer was operated in the positive electrospray ionization (ESI) mode. The capillary voltage and cone voltage were maintained at 0.6 kV and 35 V, respectively. The source temperature and desolvation temperature were set at 100 and 350° C., respectively. Nitrogen was used as both the cone gas (50 L/h) and the desolvation gas (700 L/h). Mass chromatograms and mass spectral data were acquired and processed by MassLynx software (Waters).

[1] = rabbit, sublingual administration, 1 mg/kg single dose, rabbits (n = 3), plasma, average

bioavailability (rabbit, other: sublingual (transmucosal), sublingual vs intravenous, 1 mg/kg, rabbits, from areas under the plasma concentration versus time curves, read-out: bioavailability (of the administered dose, relative to intravenous)): ~80% | Tmax (rabbit, sublingual administration, 1 mg/kg single dose, rabbits (n = 3), plasma): 10 min | Cmax [1]: 392 ± 127 ng/mL | half-life [1]: 75 ± 2.7 min | time of peak plasma concentration following transmucosal administration (sublingual route, 1 mg/kg, rabbits): approximately 10 minutes | absorption following transmucosal administration through the sublingual route (sublingual, 1 mg/kg, rabbits, comparing AUCs with intravenous): rapidly and completely absorbed
SMILES: CC(Oc1c(Cl)cccc1Cl)C1=NCCN1 (stereo not drawn) [lofexidine, 2-[1-(2,6 dichlorophenoxy)ethyl]-4,5-dihydro-1H-Imidazole]
